Test results published in US12435379B2 (The University of Chicago, priority 2016, dated 2025).

Experiments:
[1] = test system: TMD8 cells transfected with BTK T316A; details: 100 nM ibr 3 days, 10 μM BrdU 2 hrs
Method: (§1) FIGS. 3A-C. […] (A) Growth of TMD8 cells transfected with BTK T316A, C481S, and WT BTK constructs. The transfected cells were cultured with either 100 nM ibr or DMSO. The live cell numbers were counted daily to 7 days. […] (B) Cell proliferation evaluated with the BrdU incorporation assay. Cells transfected with WT BTK and T316A were treated with 100 nM ibr for 3 days and were labeled with 10 μM BrdU for 2 hrs.
(§2) BTK WT or mutant-transfected TMD8 cells were treated with ibr for 72 hrs at indicated doses. Cells were then exposed to 10 μM BrdU for 2 hrs followed by cell cycle analysis according to the manufacturer's instructions using BrdU Flow Kit (BD Pharmingen, San Diego, CA, USA). Flow cytometric analysis was performed using 4-laser BD LSR II using FACSDiva and FlowJo software.
(§3) The functional impact of T316A mutation was assessed at the cellular levels. BTK wild type (WT) and T316A as well as C481S expression vectors were constructed and transfected into an ibr-sensitive lymphoma cell line (TMD8) and cell growth was followed.

[2] = test system: TMD8 cells transfected with WT BTK; details: 100 nM ibr 3 days, 10 μM BrdU 2 hrs
Method: as §1, §2, §3

Question: How did the “BrdU incorporation (cellular proliferation) under ibr” value [1] turn out when C=CC(=O)N1CCC[C@@H](n2nc(-c3ccc(Oc4ccccc4)cc3)c3c(N)ncnc32)C1 [Ibrutinib, ibrutinib] was run?
Answer: 31.8%

Question: What about the “BrdU incorporation (cellular proliferation) under ibr” value [2] of the same compound?
Answer: 9.71%
